Reference: ChEMBL document CHEMBL5303573, “Mapping human microbiome drug metabolism by gut bacteria and their genes” (Nature, 2019)

Columns and labels:
[1] = The drug is tested on Blautia luti strain: DSM14534 for biotransformation. The drug concentrations were measured before and after a 12-h incubation by liquid-chromatography-coupled mass spectrometry (LC–MS); format: ADME; design: dose 2 uM, timepoint 0 vs 12 hours; settings: 2 µM
[2] = The drug is tested on Dorea formicigenerans strain: ATCC27755 for biotransformation. The drug concentrations were measured before and after a 12-h incubation by liquid-chromatography-coupled mass spectrometry (LC–MS); settings: 2 µM
[3] = The drug is tested on Providencia rettgeri strain: DSM1131 for biotransformation. The drug concentrations were measured before and after a 12-h incubation by liquid-chromatography-coupled mass spectrometry (LC–MS); format: ADME; design: dose 2 uM, timepoint 0 vs 12 hours; settings: 2 µM
[4] = The drug is tested on Bacteroides caccae strain: ATCC43185 for biotransformation. The drug concentrations were measured before and after a 12-h incubation by liquid-chromatography-coupled mass spectrometry (LC–MS); settings: 2 µM
[5] = segatella copri, 12 h, 2 µM
Description: The drug is tested on Prevotella copri strain: DSM18205 for biotransformation. The drug concentrations were measured before and after a 12-h incubation by liquid-chromatography-coupled mass spectrometry (LC–MS)

[6] = The drug is tested on Bacteroides xylanisolvens strain: DSM18836 for biotransformation. The drug concentrations were measured before and after a 12-h incubation by liquid-chromatography-coupled mass spectrometry (LC–MS); settings: 2 µM
[7] = parabacteroides distasonis, 12 h, 2 µM
Description: The drug is tested on Parabacteroides distasonis strain: ATCC8503 for biotransformation. The drug concentrations were measured before and after a 12-h incubation by liquid-chromatography-coupled mass spectrometry (LC–MS)

[8] = The drug is tested on Clostridium asparagiforme strain: DSM15981 for biotransformation. The drug concentrations were measured before and after a 12-h incubation by liquid-chromatography-coupled mass spectrometry (LC–MS); format: ADME; design: dose 2 uM, timepoint 0 vs 12 hours; settings: enterocloster asparagiformis, 2 µM
[9] = bacteroides thetaiotaomicron, 12 h, 2 µM
Description: The drug is tested on Bacteroides thetaiotaomicron strain: 3731 for biotransformation. The drug concentrations were measured before and after a 12-h incubation by liquid-chromatography-coupled mass spectrometry (LC–MS)

[10] = The drug is tested on Bacteroides uniformis strain: ATCC8492 for biotransformation. The drug concentrations were measured before and after a 12-h incubation by liquid-chromatography-coupled mass spectrometry (LC–MS); settings: 2 µM
[11] = The drug is tested on Bacteroides fragilis strain: HMW610 for biotransformation. The drug concentrations were measured before and after a 12-h incubation by liquid-chromatography-coupled mass spectrometry (LC–MS); settings: 2 µM
[12] = The drug is tested on Eggerthella lenta strain: ATCC25559 for biotransformation. The drug concentrations were measured before and after a 12-h incubation by liquid-chromatography-coupled mass spectrometry (LC–MS); settings: 2 µM
[13] = akkermansia muciniphila, 12 h, 2 µM
Description: The drug is tested on Akkermansia muciniphila strain: ATCC BAA-835 for biotransformation. The drug concentrations were measured before and after a 12-h incubation by liquid-chromatography-coupled mass spectrometry (LC–MS)

[14] = The drug is tested on Collinsella aerofaciens strain: ATCC25986 for biotransformation. The drug concentrations were measured before and after a 12-h incubation by liquid-chromatography-coupled mass spectrometry (LC–MS); settings: 2 µM
[15] = The drug is tested on Bacteroides vulgatus strain: ATCC8482 for biotransformation. The drug concentrations were measured before and after a 12-h incubation by liquid-chromatography-coupled mass spectrometry (LC–MS); settings: phocaeicola vulgatus, 2 µM
[16] = The drug is tested on Bacteroides ovatus strain: ATCC8483 for biotransformation. The drug concentrations were measured before and after a 12-h incubation by liquid-chromatography-coupled mass spectrometry (LC–MS); settings: 2 µM
[17] = bacteroides fragilis, 12 h, 2 µM
Description: The drug is tested on Bacteroides fragilis strain: 3397 (T10) for biotransformation. The drug concentrations were measured before and after a 12-h incubation by liquid-chromatography-coupled mass spectrometry (LC–MS)

[18] = The drug is tested on Bacteroides pectinophilus strain: ATCC43243 for biotransformation. The drug concentrations were measured before and after a 12-h incubation by liquid-chromatography-coupled mass spectrometry (LC–MS); settings: 2 µM
[19] = The drug is tested on Subdoligranulum variabile strain: DSM15176 for biotransformation. The drug concentrations were measured before and after a 12-h incubation by liquid-chromatography-coupled mass spectrometry (LC–MS); settings: 2 µM
[20] = The drug is tested on Blautia hansenii strain: DSM20583 for biotransformation. The drug concentrations were measured before and after a 12-h incubation by liquid-chromatography-coupled mass spectrometry (LC–MS); settings: 2 µM

| SMILES | Bacterial Biotransformation [1] | Bacterial Biotransformation [2] | Bacterial Biotransformation [3] | Bacterial Biotransformation [4] | Bacterial Biotransformation [5] | Bacterial Biotransformation [6] | Bacterial Biotransformation [7] | Bacterial Biotransformation [8] | Bacterial Biotransformation [9] | Bacterial Biotransformation [10] | Bacterial Biotransformation [11] | Bacterial Biotransformation [12] | Bacterial Biotransformation [13] | Bacterial Biotransformation [14] | Bacterial Biotransformation [15] | Bacterial Biotransformation [16] | Bacterial Biotransformation [17] | Bacterial Biotransformation [18] | Bacterial Biotransformation [19] | Bacterial Biotransformation [20] |
| --- | --- | --- | --- | --- | --- | --- | --- | --- | --- | --- | --- | --- | --- | --- | --- | --- | --- | --- | --- | --- |
| C[C@@H]1C[C@H]2[C@@H]3CCC4=CC(=O)C=C[C@]4(C)[C@@]3(F)[C@@H](O)C[C@]2(C)[C@@]1(O)C(=O)CO [DEXAMETHASONE] | Compound NOT metabolized | Compound NOT metabolized | Compound NOT metabolized | Compound NOT metabolized | Compound NOT metabolized | Compound metabolized | Compound NOT metabolized | Compound NOT metabolized | Compound NOT metabolized | Compound metabolized | Compound metabolized | Compound NOT metabolized | Compound NOT metabolized | – | – | – | – | – | – | – |
| CC12CC3CC(C)(C1)CC(N)(C3)C2 [MEMANTINE] | Compound NOT metabolized | Compound NOT metabolized | – | Compound NOT metabolized | – | – | Compound NOT metabolized | Compound NOT metabolized | Compound NOT metabolized | Compound NOT metabolized | Compound NOT metabolized | Compound NOT metabolized | Compound NOT metabolized | Compound NOT metabolized | Compound NOT metabolized | Compound NOT metabolized | Compound NOT metabolized | Compound NOT metabolized | Compound NOT metabolized | – |
| COC(=O)C(c1ccccc1)C1CCCCN1 (stereo unspecified) [METHYLPHENIDATE] | – | – | – | Compound NOT metabolized | – | Compound NOT metabolized | – | – | Compound NOT metabolized | Compound NOT metabolized | Compound NOT metabolized | Compound metabolized | Compound NOT metabolized | Compound NOT metabolized | – | Compound NOT metabolized | Compound NOT metabolized | Compound NOT metabolized | Compound NOT metabolized | Compound metabolized |
| CC(=O)O[C@H]1C(=O)[C@@]2(C)[C@H]([C@H](OC(=O)c3ccccc3)[C@]3(O)C[C@H](OC(=O)[C@H](O)[C@@H](NC(=O)c4ccccc4)c4ccccc4)C(C)=C1C3(C)C)[C@]1(OC(C)=O)CO[C@@H]1C[C@@H]2O [PACLITAXEL] | Compound NOT metabolized | Compound NOT metabolized | – | Compound NOT metabolized | Compound NOT metabolized | Compound metabolized | Compound NOT metabolized | Compound NOT metabolized | Compound NOT metabolized | Compound metabolized | – | Compound NOT metabolized | Compound NOT metabolized | Compound NOT metabolized | – | – | Compound NOT metabolized | Compound NOT metabolized | Compound NOT metabolized | – |
| CCc1nc(N)nc(N)c1-c1ccc(Cl)cc1 [PYRIMETHAMINE] | Compound NOT metabolized | Compound NOT metabolized | Compound NOT metabolized | Compound NOT metabolized | Compound NOT metabolized | Compound NOT metabolized | Compound NOT metabolized | Compound NOT metabolized | Compound NOT metabolized | Compound NOT metabolized | Compound NOT metabolized | Compound NOT metabolized | – | Compound NOT metabolized | Compound NOT metabolized | Compound NOT metabolized | Compound NOT metabolized | Compound NOT metabolized | – | Compound NOT metabolized |
| CCC(=O)NCC[C@@H]1CCc2ccc3c(c21)CCO3 [RAMELTEON] | Compound NOT metabolized | Compound NOT metabolized | Compound NOT metabolized | – | Compound metabolized | Compound metabolized | Compound metabolized | – | Compound metabolized | Compound metabolized | Compound metabolized | Compound NOT metabolized | – | Compound NOT metabolized | Compound metabolized | – | – | Compound NOT metabolized | Compound NOT metabolized | Compound metabolized |
| COC(=O)[C@H]1[C@H]2C[C@@H]3c4[nH]c5cc(OC)ccc5c4CCN3C[C@H]2C[C@@H](OC(=O)c2cc(OC)c(OC)c(OC)c2)[C@@H]1OC [RESERPINE] | Compound NOT metabolized | Compound NOT metabolized | Compound NOT metabolized | Compound NOT metabolized | Compound NOT metabolized | Compound NOT metabolized | Compound NOT metabolized | Compound NOT metabolized | Compound NOT metabolized | Compound NOT metabolized | Compound NOT metabolized | Compound NOT metabolized | Compound NOT metabolized | Compound NOT metabolized | Compound NOT metabolized | Compound NOT metabolized | Compound NOT metabolized | – | – | Compound NOT metabolized |
| Cc1ccc(/C(=C\CN2CCCC2)c2ccccn2)cc1 [TRIPROLIDINE] | Compound NOT metabolized | Compound NOT metabolized | Compound NOT metabolized | Compound NOT metabolized | Compound NOT metabolized | Compound NOT metabolized | Compound NOT metabolized | – | Compound NOT metabolized | Compound NOT metabolized | Compound NOT metabolized | Compound NOT metabolized | Compound NOT metabolized | Compound NOT metabolized | Compound NOT metabolized | Compound NOT metabolized | Compound NOT metabolized | Compound NOT metabolized | Compound NOT metabolized | – |
| O=C(O[C@H]1C[C@H]2CC[C@@H](C1)[N+]21CCCC1)C(O)(c1ccccc1)c1ccccc1.[Cl-] [TROSPIUM CHLORIDE] | Compound NOT metabolized | Compound NOT metabolized | Compound NOT metabolized | Compound NOT metabolized | Compound NOT metabolized | Compound NOT metabolized | Compound NOT metabolized | – | Compound NOT metabolized | Compound NOT metabolized | – | Compound NOT metabolized | Compound NOT metabolized | Compound NOT metabolized | – | Compound NOT metabolized | Compound NOT metabolized | – | Compound NOT metabolized | – |
